Reference: paper PMC3929961 (Molecular cell, 2013)

Assays:
Type in all cases: binding
EcDnaB [1] = biological target: T1, EcDnaB (Escherichia coli, UniProt P0ACB0); assay: negative-stain EM 2D class averages and SAXS; conditions: 0-1 mM AMPPNP in SAXS
GstDnaB = biological target: T2, GstDnaB (Geobacillus stearothermophilus, UniProt Q9X4C9); assay: negative-stain EM 2D class averages
T2 sequence (Q9X4C9 1-454): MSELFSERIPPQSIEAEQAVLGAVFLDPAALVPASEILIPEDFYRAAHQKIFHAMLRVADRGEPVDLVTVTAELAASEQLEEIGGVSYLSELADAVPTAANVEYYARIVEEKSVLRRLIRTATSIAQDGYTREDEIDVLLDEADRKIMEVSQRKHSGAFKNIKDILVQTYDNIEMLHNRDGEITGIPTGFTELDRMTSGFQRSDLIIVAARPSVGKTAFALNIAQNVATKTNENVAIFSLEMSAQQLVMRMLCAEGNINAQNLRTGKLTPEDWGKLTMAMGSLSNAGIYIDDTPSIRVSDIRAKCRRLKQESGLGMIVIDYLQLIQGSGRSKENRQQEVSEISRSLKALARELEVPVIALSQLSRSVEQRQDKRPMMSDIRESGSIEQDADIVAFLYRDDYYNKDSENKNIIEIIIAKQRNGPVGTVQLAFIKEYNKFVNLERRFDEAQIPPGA

EcDnaB [2] = biological target: T1, EcDnaB; assay: negative-stain EM 2D class averages

T1 sequence (P0ACB0 2-471): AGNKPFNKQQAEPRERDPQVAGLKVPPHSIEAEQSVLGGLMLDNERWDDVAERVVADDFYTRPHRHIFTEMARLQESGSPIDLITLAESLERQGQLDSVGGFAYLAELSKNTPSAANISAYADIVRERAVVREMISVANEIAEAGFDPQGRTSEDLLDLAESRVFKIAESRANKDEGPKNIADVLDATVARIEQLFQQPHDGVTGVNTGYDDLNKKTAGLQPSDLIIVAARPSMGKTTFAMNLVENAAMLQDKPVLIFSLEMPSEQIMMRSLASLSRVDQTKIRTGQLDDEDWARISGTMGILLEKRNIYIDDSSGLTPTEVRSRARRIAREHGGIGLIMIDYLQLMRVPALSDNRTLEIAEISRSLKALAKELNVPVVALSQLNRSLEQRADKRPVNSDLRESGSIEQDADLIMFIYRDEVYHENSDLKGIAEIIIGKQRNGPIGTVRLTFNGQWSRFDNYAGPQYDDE

Nc1ncnc2c1ncn2[C@@H]1O[C@H](COP(=O)(O)OP(=O)(O)NP(=O)(O)O)[C@@H](O)[C@H]1O [AMPPNP]
negative-stain EM 2D class averages and SAXS (collar constriction) (EcDnaB [1]): two kinds of 2D class averages were observed for EcDnaB in the presence of ATPγS

Nc1ncnc2c1ncn2[C@@H]1O[C@H](COP(=O)(O)OP(=O)(O)OP(=O)(O)O)[C@@H](O)[C@H]1O [ATP]
negative-stain EM 2D class averages (collar constriction) (GstDnaB): 2D EM analysis again revealed evidence for a constricted species in the presence of ATP

Nc1ncnc2c1ncn2[C@@H]1O[C@H](COP(=O)(O)OP(=O)(O)OP(O)(O)=S)[C@@H](O)[C@H]1O [ATPγS]
negative-stain EM 2D class averages (collar constriction) (EcDnaB [2]): two kinds of 2D class averages were observed for EcDnaB in the presence of ATPγS
